Measurements as given in ChEMBL document CHEMBL1201862, “PubChem BioAssay data set” (2004).
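Where inhibition never reached the appropriate level, the endpoint shown equals the highest concentration tested. Otherwise, values were interpolated linearly from a five-concentration, 48-hour dose response in 96-well plates. GI50 is the concentration that inhibits growth by half.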 Calls of active or inactive are those of the source. No stated cut-off is given here; in the data, active = GI50 up to about 1.1 µM and inactive = higher.

Assays:
Experiment in all cases: inhibition of tumour cell growth, NCI panel, 48 h
[1] = tested on: ACHN
[2] = tested on: EKVX
[3] = tested on: HCT-116
[4] = tested on: HCT-15
[5] = tested on: HL-60
[6] = tested on: HOP-92
[7] = tested on: IGROV-1
[8] = tested on: K562
[9] = tested on: LOX IMVI
[10] = tested on: MCF7
[11] = tested on: MDA-MB-231
[12] = tested on: MDA-MB-435
[13] = tested on: MOLT-4
[14] = tested on: OVCAR-3
[15] = tested on: SK-MEL-28
[16] = tested on: SK-MEL-2
[17] = tested on: SNB-75
[18] = tested on: TK-10
[19] = tested on: U-251
[20] = tested on: HOP-18

In the case of CC(Br)C(=O)NC(CO)C(=O)O (stereo not given), the GI50 [1] was > 100 µM (inactive), the GI50 [2] was > 100 µM (inactive) and the GI50 [3] was > 100 µM (inactive). The GI50 [4] was greater than 100 µM, the GI50 [5] was > 100 µM (inactive) and the GI50 [6] was > 100 µM (inactive). The GI50 [7] was > 100 µM (inactive), the GI50 [8] was > 100 µM (inactive) and the GI50 [9] was > 100 µM (inactive). The GI50 [10] was > 100 µM (inactive), the GI50 [11] was > 100 µM (inactive) and the GI50 [12] was > 100 µM (inactive). For the same compound, the GI50 [13] was > 100 µM (inactive), the GI50 [14] was > 100 µM (inactive) and the GI50 [15] was > 100 µM (inactive). The GI50 [16] was > 100 µM (inactive), the GI50 [17] was > 100 µM (inactive) and the GI50 [18] was > 100 µM (inactive). For the same compound, the GI50 [19] was > 100 µM (inactive).

With CCOCN1COCN/C1=N/C#N the GI50 [1] was > 100 µM (inactive), the GI50 [2] was > 100 µM (inactive) and the GI50 [3] was > 100 µM (inactive). For the same compound, the GI50 [4] was 58.5 µM, the GI50 [5] was > 100 µM (inactive) and the GI50 [20] was > 100 µM (inactive). The GI50 [6] was > 100 µM (inactive), the GI50 [7] was > 100 µM (inactive) and the GI50 [8] was > 100 µM (inactive). The GI50 [13] was > 100 µM (inactive), the GI50 [14] was > 100 µM (inactive) and the GI50 [15] was > 100 µM (inactive). The GI50 [16] was > 100 µM (inactive), the GI50 [17] was > 100 µM (inactive) and the GI50 [18] was > 100 µM (inactive). The GI50 [19] was > 100 µM (inactive).

With O=C(NO)c1cccc(OCc2ccc(Br)cc2)c1 the GI50 [1] was 3.03 µM (inactive), the GI50 [2] was 5.9 µM (inactive) and the GI50 [3] was 4.35 µM (inactive). For the same compound, the GI50 [4] was 0.991 µM, the GI50 [5] was 3.01 µM (inactive) and the GI50 [6] was 7.8 µM (inactive). For the same compound, the GI50 [7] was 3.35 µM (inactive), the GI50 [8] was 3.6 µM (inactive) and the GI50 [9] was 2.11 µM (inactive). The GI50 [10] was 2.45 µM (inactive), the GI50 [11] was 12.3 µM (inactive) and the GI50 [12] was 5.73 µM (inactive). For the same compound, the GI50 [13] was 2.03 µM (inactive), the GI50 [14] was 3.85 µM (inactive) and the GI50 [15] was 14.2 µM (inactive). For the same compound, the GI50 [16] was 11.3 µM (inactive), the GI50 [17] was 4.29 µM (inactive) and the GI50 [18] was 10.5 µM (inactive). For the same compound, the GI50 [19] was 4.63 µM (inactive).

For CC1=C(O)C(=O)C=C2C1=CC=C1[C@@]2(C)CC[C@@]2(C)C3C[C@@H](C)C(=O)[C@@H](O)[C@]3(C)CC[C@]12C (stereo not given in full), the GI50 [1] was 1.7 µM (inactive), the GI50 [2] was 2.08 µM (inactive) and the GI50 [3] was 1.72 µM (inactive). For the same compound, the GI50 [4] was 1.91 µM, the GI50 [5] was 0.641 µM (active) and the GI50 [6] was 2.03 µM (inactive). For the same compound, the GI50 [7] was 1.73 µM (inactive), the GI50 [8] was 0.891 µM (active) and the GI50 [9] was 1.5 µM (inactive). The GI50 [10] was 2.77 µM (inactive), the GI50 [11] was 2 µM (inactive) and the GI50 [12] was 2.24 µM (inactive). The GI50 [13] was 0.745 µM (active), the GI50 [14] was 1.88 µM (inactive) and the GI50 [15] was 1.95 µM (inactive). For the same compound, the GI50 [16] was 5.05 µM (inactive), the GI50 [17] was 8.38 µM (inactive) and the GI50 [18] was 1.84 µM (inactive). The GI50 [19] was 1.85 µM (inactive).

COc1ccc2cc3c4cc(OC)c(OC)cc4ccn3c2c1 was tested, and the GI50 [1] was > 100 µM (inactive), the GI50 [2] was > 100 µM (inactive) and the GI50 [5] was > 100 µM (inactive). The GI50 [20] was > 100 µM (inactive), the GI50 [6] was > 100 µM (inactive) and the GI50 [7] was > 100 µM (inactive). For the same compound, the GI50 [8] was > 100 µM (inactive), the GI50 [9] was > 100 µM (inactive) and the GI50 [13] was > 100 µM (inactive). The GI50 [15] was > 100 µM (inactive), the GI50 [16] was > 100 µM (inactive) and the GI50 [18] was > 100 µM (inactive). The GI50 [19] was > 100 µM (inactive).

For CNn1c(C)n[nH]c1=O, the GI50 [1] was > 100 µM (inactive), the GI50 [2] was > 100 µM (inactive) and the GI50 [3] was > 100 µM (inactive). For the same compound, the GI50 [4] was greater than 100 µM, the GI50 [5] was > 100 µM (inactive) and the GI50 [6] was > 100 µM (inactive). For the same compound, the GI50 [7] was > 100 µM (inactive), the GI50 [8] was > 100 µM (inactive) and the GI50 [9] was > 100 µM (inactive). For the same compound, the GI50 [10] was > 100 µM (inactive), the GI50 [11] was > 100 µM (inactive) and the GI50 [12] was > 100 µM (inactive). For the same compound, the GI50 [13] was > 100 µM (inactive), the GI50 [14] was > 100 µM (inactive) and the GI50 [15] was > 100 µM (inactive). For the same compound, the GI50 [16] was > 100 µM (inactive), the GI50 [17] was 50.8 µM (inactive) and the GI50 [18] was > 100 µM (inactive). The GI50 [19] was > 100 µM (inactive).

In the case of CC(C)CCCC(C)[C@H]1CCC2[C@@H]3CCC4Nc5c(cnn5-c5ccccc5)C[C@]4(C)C3CC[C@@]21C (stereo not given in full), the GI50 [1] was 29.8 µM (inactive), the GI50 [2] was 7.52 µM (inactive) and the GI50 [3] was 51.6 µM (inactive). The GI50 [4] was 23.3 µM, the GI50 [5] was 4.67 µM (inactive) and the GI50 [20] was > 100 µM (inactive). For the same compound, the GI50 [7] was > 100 µM (inactive), the GI50 [8] was 28.1 µM (inactive) and the GI50 [13] was 3.32 µM (inactive). The GI50 [14] was 32.5 µM (inactive), the GI50 [16] was 23.4 µM (inactive) and the GI50 [17] was 2.88 µM (inactive). The GI50 [18] was > 100 µM (inactive) and the GI50 [19] was 12.5 µM (inactive).

For CC1=C2C3OC(=O)C(C)C3C(O)C[C@@]2(C)C(=O)CC1 (stereo not given in full), the GI50 [1] was > 100 µM (inactive), the GI50 [2] was > 100 µM (inactive) and the GI50 [3] was > 100 µM (inactive). For the same compound, the GI50 [4] was greater than 100 µM, the GI50 [5] was > 100 µM (inactive) and the GI50 [20] was > 100 µM (inactive). The GI50 [6] was > 100 µM (inactive), the GI50 [7] was > 100 µM (inactive) and the GI50 [9] was > 100 µM (inactive). The GI50 [13] was > 100 µM (inactive), the GI50 [14] was > 100 µM (inactive) and the GI50 [15] was > 100 µM (inactive). The GI50 [17] was > 100 µM (inactive), the GI50 [18] was > 100 µM (inactive) and the GI50 [19] was > 100 µM (inactive).

Cc1cc(C)c(C(=O)/C=C/c2ccccc2)c(C)c1 was tested, and the GI50 [1] was 38.4 µM (inactive), the GI50 [2] was 40.4 µM (inactive) and the GI50 [3] was 24.8 µM (inactive). For the same compound, the GI50 [4] was 16.5 µM, the GI50 [5] was 25.9 µM (inactive) and the GI50 [20] was > 100 µM (inactive). The GI50 [6] was 19.1 µM (inactive), the GI50 [7] was 77.4 µM (inactive) and the GI50 [8] was 26.5 µM (inactive). The GI50 [13] was 24.9 µM (inactive), the GI50 [14] was > 10 µM (inactive) and the GI50 [15] was > 10 µM (inactive). The GI50 [16] was 10.4 µM (inactive), the GI50 [17] was 40.9 µM (inactive) and the GI50 [18] was 47.5 µM (inactive). The GI50 [19] was 15.9 µM (inactive).
